Data reported in patent publication US20240343821A1, “OFATUMUMAB FOR TREATING PEDIATRIC MS” (NOVARTIS AG, priority 2021, published 2024).

Assays:
Format in all cases: in vivo, human
[1] = test system: B cells; assay: B cell depletion under the claimed ofatumumab dosage regimen; settings: loading dose weeks 0, 1, 2; maintenance from week 8 every six weeks
Description: This has been completely surprising because there are significant differences between adult patients and pediatric patients. These differences relate, inter alia, to physiology, metabolism, and body weight. In this context, it is also noted that there is a higher baseline B cell count in children compared to adults and, therefore, it would not have been expected that the claimed dosage regimen is able to consistently deplete B cells in patients as defined in the claims.

[2] = Ofatumumab half-life at steady state after subcutaneous administration; settings: following subcutaneous administration of repeated 20 mg doses
Experimental: The half-life of ofatumumab at steady state can be approximately 16 days, in particular following subcutaneous administration of repeated 20 mg doses.

[3] = Multiple Sclerosis Impact Scale (MSIS-29) under ofatumumab; settings: administration of ofatumumab
Experimental: The MSIS-29 version 2 is a 29-item, self-administered questionnaire that includes 2 domains: physical and psychological. Responses were captured on a 4-point ordinal scale ranging from 1 (not at all) to 4 (extremely), with higher scores reflecting greater impact on day-to-day life. The MSIS-29 takes about 5 minutes to complete and the questions are designed to determine the patient's views about the impact of MS on their day-to-day life during the past 2 weeks. Reference is made to Hobart J and Cano S (2009), “Improving the evaluation of therapeutic interventions in multiple sclerosis: the role of new psychometric methods”, Health Technol Assess; 13(12):iii, ix-x, […] to Hobart J, Lamping D, Fitzpatrick R, et al (2001), “The Multiple Sclerosis Impact Scale (MSIS-29): a new patient-based outcome measure”, Brain; 124(Pt 5):962-73.

[4] = Immunoglobulin (IgG) levels under long-term ofatumumab therapy; settings: in the long run, long-term treatment
Description: Generally, side effects and adverse events associated with B cell-depleting therapies such as ocrelizumab therapy are reported to be associated with a reduction of immunoglobulins (e.g. IgG).

Ofatumumab
depletion of B cells (B cell count threshold) [1]: < 8 cells per microliter | half-life at steady state [2]: approximately 16 days | MS impact scale MSIS-29 [3]: advantageous reduction | reduction of immunoglobulins (e.g. IgG) [4]: does not cause reduction of immunoglobulins
